The results in this text go back to ChEMBL document CHEMBL3045831, “Insight into the structural requirement of aryltriazolinone derivatives as angiotensin II AT1 receptor: 2D and 3D-QSAR k-Nearest Neighbor Molecular Field Analysis approach” (Med Chem Res, 2012).

The target in this assay is T1, Type-1 angiotensin II receptor (Oryctolagus cuniculus, UniProt P34976).
T1 sequence (P34976 whole entry): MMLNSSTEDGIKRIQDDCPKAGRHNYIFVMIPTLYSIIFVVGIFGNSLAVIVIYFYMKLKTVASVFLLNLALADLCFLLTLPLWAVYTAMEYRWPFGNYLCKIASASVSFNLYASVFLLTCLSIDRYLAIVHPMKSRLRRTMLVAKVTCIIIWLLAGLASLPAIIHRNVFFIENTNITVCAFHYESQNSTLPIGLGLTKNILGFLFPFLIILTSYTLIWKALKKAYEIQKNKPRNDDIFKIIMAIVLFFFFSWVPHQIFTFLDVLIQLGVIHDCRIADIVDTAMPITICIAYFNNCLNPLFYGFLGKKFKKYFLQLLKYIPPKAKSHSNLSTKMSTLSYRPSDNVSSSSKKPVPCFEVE
As to the kind of experiment: Antagonist activity at Oryctolagus cuniculus (rabbit) aortic AT1 receptor.

On to `CCCCNC(=O)c1ccc(Cl)c(-n2nc(CCCC)n(Cc3ccc(-c4ccccc4S(=O)(=O)NC(=O)OC(C)(C)C)cc3F)c2=O)c1`, for which the IC50 (read-out: pIC50 (converted)) was 0.178 nM. `CCCCC(=O)Nc1ccc(Cl)c(-n2nc(CCC)n(Cc3ccc(-c4ccccc4S(=O)(=O)NC(=O)c4cc(Cl)ccc4Cl)cc3F)c2=O)c1`: the IC50 (read-out: IC50) was 0.19 nM.
